Assay results published in patent US20240308953A1, “SOLUBLE CHELATOR FOR TARGETING RECOMBINANT PROTEINS” (CUBE BIOTECH GMBH, priority 2021, published 2024).

Test system: His-tagged proteins
Assay: surface plasmon resonance, immobilized chelator, protein loss during wash
Type: binding
Conditions: immobilized for surface plasmon resonance measurements
Description: The affinity of the soluble chelator of the present invention for His-tagged proteins is much higher, compared to the NTA analoga. […] So, a stable, non-reversible protein binding via affinity bonds between metal and poly-His is feasible.

In the case of O=C(O)CN(CC(=O)O)CC(=O)O [NTA, nitrilotriacetic acid], the “protein loss from the chip” value is reported as “protein leaching during wash”.
